Read-outs that look alike come from different tables or passages of the source.
What was measured:
[1] = cited from earlier work; for absorption of metal cations in the gastrointestinal tract (in words): in vivo; for biological availability vs inorganic salts (in words): polyvalent metal ions from metal-amino acid complexes
[2] = chickens; cited from earlier work
[3] = Performance of finishing cattle (Study 1: weight, gain, feed intake, gain/feed); assay type: in vivo, Angus crossbred steers; parameters: Average daily gain: unit not given here; settings: finishing steers; for Final weight / Initial weight: 25 ppm supplemental zinc; for Final weight: 140-day study; for Initial weight: baseline
Description: Fifty-six Angus crossbred steers were used in this study. Steers were purchased from either a feeder calf sale […] a preconditioned sale. Steers were blocked by sale type and weight, and then randomly assigned to a feed regimen. […] All regimens provided 25 ppm of supplemental zinc. Steers were housed in pens containing seven steers each.
Supplemental protein was supplied from a combination of soybean meal and urea. Steer weights were obtained on two consecutive days at the beginning and the end of the 140-day study. Interim weights were taken at 28-day intervals. Feed intake was measured daily. Blood and rumen fluid samples were obtained from 10 steers per treatment approximately two hours post feeding on day 42 of the study. Samples were analyzed for plasma and rumen fluid soluble zinc concentrations. Data were analyzed statistically by least square analysis of variance.

[4] = Comparative zinc bioavailability trial in day-old broilers (growth, feed conversion, bone ash, tibia ash zinc, plasma zinc); settings: for Relative Biological Availability: Feed conversion (corr.): 3-21 days; for Relative Biological Availability: Body weight gain / Relative Biological Availability: Bone ash / Relative Biological Availability: Ending body weight: 21 days
Description: Each zinc treatment was replicated eight times and each pen contained ten male birds.
Basal feeds and zinc compound were mixed in a horizontal feed mixer providing the desired ingredient composition as shown in Table 2. The broilers were fed the rations for 21 days. Feed weights were taken during the trial. Body weights were measured at the beginning and at the end of the trial. On day 21, zinc levels in the blood and tibia ash were determined. The assay procedures for total tibia zinc content or concentration to assess zinc utilization are similar to those used by Wedekind et al., J. Anim. Sci., 70:178-187 (1992). The data were analyzed according to the SAS statistical package.
Chick growth parameters and zinc levels in the blood and tibia ash were used as criteria to determine the biological availability of zinc. […] The biological availability of zinc sulfate was arbitrarily set at 100%.

[5] = Performance of growing cattle (Study 2: weight, gain, feed intake, gain/feed); assay type: in vivo, Angus steers; settings: for Average daily gain / Feed intake / Gain/feed / Final weight / Initial weight: growing steers; for Final weight / Initial weight: 25 ppm supplemental zinc; for Initial weight: baseline
Description: Thirty-six Angus steers with an average body weight of 268 kg were stratified by weight and randomly assigned to feed regimens. […] Zinc was supplemented in all treatments to provide 25 ppm of supplemental zinc.
Steers were housed in pens of 12 steers and individually fed using electronic gates. Each pen contained an equal number of steers from each dietary regimen. Steers were fed a basal corn silage-based growing diet supplemented with protein, minerals and vitamins. Diets were offered ad libitum.
Body weights were obtained on two consecutive days at the initiation and termination of the 112-day study. Interim weights were taken at 28-day intervals. Blood and rumen fluid samples were obtained on day 42 of the study for determination of plasma and rumen fluid soluble zinc concentrations. Data were statistically analyzed by least square analysis of variance.

[6] = bovine, in vivo; cited from earlier work
[7] = in vivo; cited from earlier work
[8] = 0 to 28 days, propionate vs. sulfate P < 0.05, vs. methionine P < 0.10
[9] = 55 to 112 days (so in the source)
[10] = zinc sulfate arbitrarily set at 100%
[11] = 0 to 28 days, propionate vs. methionine P < 0.05, vs. sulfate P < 0.10 (as footnoted)
[12] = 29 to 56 days, propionate vs. methionine P < 0.05
[13] = 29 to 56 days, propionate vs. sulfate P < 0.05, vs. methionine P < 0.10
[14] = 57 to 84 days, propionate vs. sulfate P < 0.10
[15] = Total (0 to 112 days), propionate vs. sulfate P < 0.05, vs. methionine P < 0.10
[16] = day 21, zinc sulfate arbitrarily set at 100%

For `O=C([O-])CC(O)(CC(=O)[O-])C(=O)[O-].O=C([O-])CC(O)(CC(=O)[O-])C(=O)[O-].[Zn+2].[Zn+2].[Zn+2]` [zinc citrate], the “absorption of metal cations in the gastrointestinal tract (in words)” value [1] is listed as “variable results, enhancing absorption in one study and having no effect in others”.

In the case of `NCCCC[C@H](N)C(=O)O.[Zn]` [zinc-lysine], the “biological availability vs inorganic salts (in words)” value [1] is listed as “more biologically available to the animal than are the same ions provided from inorganic salts”.

For `CC(=O)[O-].CC(=O)[O-].[Zn+2]` [zinc acetate, Zinc acetate], the “toxicity (in words)” value [2] is given as “toxic to chickens”.

For `O=S(=O)([O-])[O-].[Zn+2]` [Zinc sulfate], the Average daily gain ([3]; 0 to 28 days) was 1.26, the Feed intake ([3]; 0 to 28 days) was 6.28 kg/day and the Gain/feed [3, 8] was 0.201. It also gave a Final weight [3] of 489.6 kg, an Initial weight [3] of 303.0 kg and an Average daily gain ([3]; 29 to 56 days) of 1.46. It also gave a Feed intake ([3]; 29 to 56 days) of 7.51 kg/day, a Gain/feed ([3]; 29 to 56 days) of 0.195 and a Gain/feed [3, 9] of 0.142. It also gave an Average daily gain ([3]; 57 to 84 days) of 1.52, a Feed intake ([3]; 57 to 84 days) of 6.21 kg/day and a Gain/feed ([3]; 57 to 84 days) of 0.244. It also gave an Average daily gain ([3]; 85 to 112 days) of 1.19, a Feed intake ([3]; 85 to 112 days) of 8.33 kg/day and an Average daily gain ([3]; 113 to 140 days) of 1.24. The Feed intake ([3]; 113 to 140 days) was 6.60 kg/day, the Gain/feed ([3]; 113 to 140 days) was 0.189 and the Average daily gain ([3]; Total (0 to 140 days)) was 1.33. For the same compound, the Feed intake ([3]; Total (0 to 140 days)) was 6.99 kg/day, the Gain/feed ([3]; Total (0 to 140 days)) was 0.191 and the “Relative Biological Availability: Feed conversion (corr.)” value [4, 10] was 100.00%. For the same compound, the “Relative Biological Availability: Body weight gain” value [4, 10] was 100.00%, the “Relative Biological Availability: Bone ash” value [4, 10] was 100.00% and the “Relative Biological Availability: Ending body weight” value [4, 10] was 100.00%. For the same compound, the “Relative Biological Availability: Plasma Zinc” value ([4]; chicken, in vivo, 30240 min) was 100.00%, the “Relative Biological Availability: Tibia ash zinc” value ([4]; chicken, in vivo, 30240 min) was 100.00% and the Average daily gain ([5]; 0 to 28 days) was 1.34 kg. The Feed intake ([5]; 0 to 28 days) was 7.67 kg/day, the Gain/feed [5, 11] was 0.178 and the Final weight ([5]; 112-day study) was 391.8 kg. The Initial weight [5] was 265.5 kg, the Feed intake ([5]; 29 to 56 days) was 8.13 kg/day and the Average daily gain [5, 12] was 1.10 kg. It also gave a Gain/feed [5, 13] of 0.137, an Average daily gain ([5]; 57 to 84 days) of 0.72 kg and a Gain/feed ([5]; 57 to 84 days) of 0.095. For the same compound, the Feed intake [5, 14] was 7.62 kg/day, the Average daily gain ([5]; 85 to 112 days) was 1.36 kg and the Feed intake ([5]; 85 to 112 days) was 7.86 kg/day. For the same compound, the Gain/feed ([5]; 85 to 112 days) was 0.174, the Average daily gain ([5]; Total (0 to 112 days)) was 1.13 kg and the Feed intake ([5]; Total (0 to 112 days)) was 7.82 kg/day. The Gain/feed [5, 15] was 0.145.

In the case of zinc picolinate, the “absorption of zinc (in words)” value [6] is listed as “not in cattle”, the “absorption of metal cations in the gastrointestinal tract (in words)” value [1] is listed as “variable results, enhancing absorption in one study and having no effect in others” and the “absorption of zinc (in words)” value [7] is listed as “enhance the absorption of zinc in humans and rats”.

For `CSCC[C@H](N)C(=O)O.O=S(=O)([O-])O.O=S(=O)([O-])O.[Zn+2]` [Zinc methionine, Zinc methionine bisulfate], the Average daily gain ([3]; 0 to 28 days) was 1.32, the Feed intake ([3]; 0 to 28 days) was 6.35 kg/day and the Gain/feed [3, 8] was 0.208. The Final weight [3] was 487.6 kg, the Initial weight [3] was 304.7 kg and the Average daily gain ([3]; 29 to 56 days) was 1.45. For the same compound, the Feed intake ([3]; 29 to 56 days) was 7.76 kg/day, the Gain/feed ([3]; 29 to 56 days) was 0.186 and the Gain/feed [3, 9] was 0.115. For the same compound, the Average daily gain ([3]; 57 to 84 days) was 1.57, the Feed intake ([3]; 57 to 84 days) was 6.43 kg/day and the Gain/feed ([3]; 57 to 84 days) was 0.244. For the same compound, the Average daily gain ([3]; 85 to 112 days) was 0.97, the Feed intake ([3]; 85 to 112 days) was 8.51 kg/day and the Average daily gain ([3]; 113 to 140 days) was 1.22. The Feed intake ([3]; 113 to 140 days) was 6.59 kg/day, the Gain/feed ([3]; 113 to 140 days) was 0.184 and the Average daily gain ([3]; Total (0 to 140 days)) was 1.31. For the same compound, the Feed intake ([3]; Total (0 to 140 days)) was 7.13 kg/day, the Gain/feed ([3]; Total (0 to 140 days)) was 0.183 and the “biological availability vs inorganic salts (in words)” value [1] was “more biologically available to the animal than are the same ions provided from inorganic salts”. The “Relative Biological Availability: Feed conversion (corr.)” value [4, 10] was 90.38%, the “Relative Biological Availability: Body weight gain” value [4, 10] was 131.52% and the “Relative Biological Availability: Bone ash” value [4, 10] was 113.95%. The “Relative Biological Availability: Ending body weight” value [4, 10] was 132.46%, the “levels of zinc in the blood and tibia ash (in words)” value ([4]; day 21) was “comparable levels of zinc in the blood and tibia ash” and the “Relative Biological Availability: Plasma Zinc” value [4, 16] was 124.00%. For the same compound, the “Relative Biological Availability: Tibia ash zinc” value [4, 16] was 123.99%, the “gains, second 28-day period (in words)” value ([5]; 29 to 56 days, methionine vs propionate (P<0.05)) was “gains were greater (P<0.05) in steers fed zinc methionine compared with those fed zinc propionate” and the “Gains for the entire study (in words)” value ([5]; 112-day study) was “tended to be higher for steers fed zinc methionine”. The Average daily gain ([5]; 0 to 28 days) was 1.33 kg, the Feed intake ([5]; 0 to 28 days) was 8.11 kg/day and the Gain/feed [5, 11] was 0.164. It also gave a Final weight ([5]; 112-day study) of 399.6 kg, an Initial weight [5] of 267.7 kg and a Feed intake ([5]; 29 to 56 days) of 9.03 kg/day. It also gave an Average daily gain [5, 12] of 1.18 kg, a Gain/feed [5, 13] of 0.132 and an Average daily gain ([5]; 57 to 84 days) of 0.87 kg. The Gain/feed ([5]; 57 to 84 days) was 0.104, the Feed intake [5, 14] was 8.62 kg/day and the Average daily gain ([5]; 85 to 112 days) was 1.34 kg. It also gave a Feed intake ([5]; 85 to 112 days) of 8.56 kg/day, a Gain/feed ([5]; 85 to 112 days) of 0.158 and an Average daily gain ([5]; Total (0 to 112 days)) of 1.18 kg. The Feed intake ([5]; Total (0 to 112 days)) was 8.58 kg/day, the Gain/feed [5, 15] was 0.139 and the “feed consumption (in words)” value ([5]; total study period, vs zinc sulfate (P<0.10)) was “consumed more (P<0.10) feed over the total study period than steers fed zinc sulfate”.
